The subject of the test is H929 myeloma cells. In kind it is cell-based, human. Conditions: for fold more potent than linear HYD1: reference of the 10- and 15-fold statements not expressly named; for bioactivity relative to parent/comparator peptide: SAR statements. How it is done: H929 cells were treated for 24 hours with varying concentrations of peptide. Cell death was measured by Topro-3 staining and FACS analysis. The IC50 values were obtained from linear regression analysis and an average value was obtained from 3 independent experiments.
Table 4 legend: Structure activity relationship in H929 myeloma cells of cyclic INTEGRIN INTERACTION INHIBITORS derivatives. The minimal bioactive core sequence of INTEGRIN INTERACTION INHIBITORS WSVVM (SEQ ID NO:33) was cyclized using 2 novel reduced amide bond beta turn promoters and KLKLK (SEQ ID NO:34) as the non-recognition sequence. H929 cells were treated with varying concentrations of the indicated peptide for 24 h. Cell viability was determined using Topro-3 staining and FACS analysis after drug treatment. IC50 values were generated from linear regressions generated from the dose response curves (n=mean of 3 independent experiments).
A colony forming assay was used to compare induced cell death in H929 multiple myeloma cells. Cells were treated with integrin interaction inhibitors, shown in FIG. 5 and Table 4, and cell death was measured following 24 hour peptide treatment by TOPRO-3 staining and FACS analysis.

[1] abbreviates: Table 8, cyclic III peptide analogs, H929 cells, read-out: IC50.

Like-named read-outs stand apart in the source and are kept apart here. *1 amine or outer side, *2 acyl side, *3 side chain or, on linkers, in order; H or OH if unused. Where a SMILES comes first, the peptide text is derived from it. Bridges are numbered along the chain shown (N, C = ends). [ ]: non-standard residue; d: D form. The star is where a group is joined. dProlinol(O-CH2CO) = O=C(COC[C@H]1CCCN1[*:1])[*:2]; N(2-Aminoethyl)Gly = O=C(CN(CCN[*:3])[*:1])[*:2]; Nle = CCCC[C@H](N)C(=O)O; Ms = CS(=O)(=O)*; Sar = CNCC(=O)O A value given as a limit tells only on which side of the number the result lay.

Turning to `CSCC[C@@H]1NC(=O)CN(S(C)(=O)=O)CCNC(=O)[C@H](CCCCN)NC(=O)[C@H](CC(C)C)NC(=O)[C@H](CCCCN)NC(=O)[C@H](CC(C)C)NC(=O)[C@H](CCCCN)NC(=O)CN(S(C)(=O)=O)CCNC(=O)[C@H](Cc2c[nH]c3ccccc23)NC(=O)[C@H](CO)NC(=O)[C@H](C(C)C)NC(=O)[C@H](C(C)C)NC1=O` [Peptide 2, KLKLKT1MVVSWT1], under “H929 cells”, the “fold more potent compared to the cyclic D-HYD1 variant” value came out at 2 fold and the “fold more potent than linear HYD1” value is listed as 2.5 fold. Consider `CSCC[C@@H]1NC(=O)CN(S(C)(=O)=O)CCNC(=O)[C@H](CCCCN)NC(=O)[C@H](CC(C)C)NC(=O)[C@H](CCCCN)NC(=O)[C@H](CC(C)C)NC(=O)[C@H](CCCCN)NC(=O)CN(S(C)(=O)=O)CCNC(=O)[C@H](C)NC(=O)[C@H](CO)NC(=O)[C@H](C(C)C)NC(=O)[C@H](C(C)C)NC1=O` [Peptide 3, KLKLKT1MVVSAT1], for which the “bioactivity relative to parent/comparator peptide” value (H929 cells) is given as “decrease in activity”.

`CSCC[C@@H]1NC(=O)CN(S(C)(=O)=O)CCNC(=O)[C@H](CCCCN)NC(=O)[C@H](CC(C)C)NC(=O)[C@H](CCCCN)NC(=O)[C@H](CC(C)C)NC(=O)[C@H](CCCCN)NC(=O)CN(S(C)(=O)=O)CCNC(=O)[C@H](Cc2c[nH]c3ccccc23)NC(=O)[C@H](C)NC(=O)[C@H](C(C)C)NC(=O)[C@H](C(C)C)NC1=O` [Peptide 4, KLKLKT1MVVAWT1]: under “H929 cells”, the “fold more potent than linear HYD1” value is on record as “approximately 10 fold” and the “bioactivity relative to parent/comparator peptide” value is given as “significantly improved the bioactivity”. For the setting “H929 cells, listed as L-cINTEGRIN INTERACTION INHIBITORSa7”, the “bioactivity relative to parent/comparator peptide” value is listed as “increase in activity”. Take `CSCC[C@@H]1NC(=O)CN(S(C)(=O)=O)CCNC(=O)[C@H](CCCCN)NC(=O)[C@H](CC(C)C)NC(=O)[C@H](CCCCN)NC(=O)[C@H](CC(C)C)NC(=O)[C@H](CCCCN)NC(=O)CN(S(C)(=O)=O)CCNC(=O)[C@H](Cc2c[nH]c3ccccc23)NC(=O)[C@H](CO)NC(=O)[C@H](C)NC(=O)[C@H](C(C)C)NC1=O` [Peptide 5, KLKLKT1MVASWT1]: the “bioactivity relative to parent/comparator peptide” value (H929 cells) is on record as “decrease in activity”. `CSCC[C@@H]1NC(=O)CN(S(C)(=O)=O)CCNC(=O)[C@H](CCCCN)NC(=O)[C@H](CC(C)C)NC(=O)[C@H](CCCCN)NC(=O)[C@H](CC(C)C)NC(=O)[C@H](CCCCN)NC(=O)CN(S(C)(=O)=O)CCNC(=O)[C@H](Cc2c[nH]c3ccccc23)NC(=O)[C@H](CO)NC(=O)[C@H](C(C)C)NC(=O)[C@H](C)NC1=O` [Peptide 6, KLKLKT1MAVSWT1]: the “bioactivity relative to parent/comparator peptide” value (H929 cells) was “increase in activity”. Consider `CC(C)C[C@@H]1NC(=O)[C@H](CCCCN)NC(=O)CN(S(C)(=O)=O)CCNC(=O)[C@H](Cc2c[nH]c3ccccc23)NC(=O)[C@H](CO)NC(=O)[C@H](C(C)C)NC(=O)[C@H](C(C)C)NC(=O)[C@H](C)NC(=O)CN(S(C)(=O)=O)CCNC(=O)[C@H](CCCCN)NC(=O)[C@H](CC(C)C)NC(=O)[C@H](CCCCN)NC1=O` [Peptide 7, KLKLKT1AVVSWT1], for which the “bioactivity relative to parent/comparator peptide” value (H929 cells) is on record as “decrease in activity”. Take `CCCC[C@@H]1NC(=O)CN(S(C)(=O)=O)CCNC(=O)[C@H](CCCCN)NC(=O)[C@H](CC(C)C)NC(=O)[C@H](CCCCN)NC(=O)[C@H](CC(C)C)NC(=O)[C@H](CCCCN)NC(=O)CN(S(C)(=O)=O)CCNC(=O)[C@H](Cc2c[nH]c3ccccc23)NC(=O)[C@H](CO)NC(=O)[C@H](C(C)C)NC(=O)[C@H](C(C)C)NC1=O` [Peptide 8, KLKLKT1N*VVSWT1]: for the setting “H929 cells”, the “fold more potent than linear HYD1” value stood at 15 fold and the “bioactivity relative to parent/comparator peptide” value was “resulted in a further increase of the peptide's bioactivity”. With `CCCC[C@@H]1NC(=O)CN(S(C)(=O)=O)CCNC(=O)[C@H](CCCCN)NC(=O)[C@H](CC(C)C)NC(=O)[C@H](CCCCN)NC(=O)[C@H](CC(C)C)NC(=O)[C@H](CCCCN)NC(=O)CN(S(C)(=O)=O)CCNC(=O)[C@H](Cc2c[nH]c3ccccc23)NC(=O)[C@H](Cc2ccc(O)cc2)NC(=O)[C@H](C(C)C)NC(=O)[C@H](C(C)C)NC1=O` [Peptide 9, KLKLKT1N*VVYWT1], the “bioactivity relative to parent/comparator peptide” value (H929 cells) is “had a similar bioactivity as the inverso cyclic III peptide 8”. On to `CCCC[C@@H]1NC(=O)CN(S(C)(=O)=O)CCNC(=O)[C@H](CCCCN)NC(=O)[C@H](CC(C)C)NC(=O)[C@H](CCCCN)NC(=O)[C@H](CC(C)C)NC(=O)[C@H](CCCCN)NC(=O)COC[C@H]2CCCN2C(=O)[C@H](Cc2c[nH]c3ccccc23)NC(=O)[C@H](C)NC(=O)[C@H](C(C)C)NC(=O)[C@H](C(C)C)NC1=O` [Peptide 16, KLKLKT1N*VVAWT3] (Ms-[N(2-Aminoethyl)Gly][Nle]VVAW[dProlinol(O-CH2CO)]KLKLK; lactam 1-C), for which the IC50 is 13 µM (H929 myeloma cells, 24 h treatment, Topro-3 staining and FACS, mean of at least 3 independent experiments, read-out: IC50); 1 µM (text b390, H929 multiple myeloma cells, read-out: bioactivity). For the setting “24 h”, `CCCC[C@@H]1NC(=O)CN(S(C)(=O)=O)CCNC(=O)[C@H](CCCCN)NC(=O)[C@H](CC(C)C)NC(=O)[C@H](CCCCN)NC(=O)[C@H](CC(C)C)NC(=O)[C@H](CCC(N)=O)NC(=O)COC[C@H]2CCCN2C(=O)[C@H](Cc2c[nH]c3ccccc23)NC(=O)[C@H](C)NC(=O)[C@H](C(C)C)NC(=O)[C@H](C(C)C)NC1=O` [Peptide 18, QLKLKT1N*VVAWT3] (Ms-[N(2-Aminoethyl)Gly][Nle]VVAW[dProlinol(O-CH2CO)]QLKLK; lactam 1-C) showed an IC50 of 19 µM.

`CCCC[C@@H]1NC(=O)[C@H](C(C)C)NC(=O)[C@H](C(C)C)NC(=O)[C@H](C)NC(=O)[C@H](Cc2c[nH]c3ccccc23)NC(=O)COC[C@H]2CCCN2C(=O)[C@H](CCCCN)NC(=O)[C@H](CC(C)C)NC(=O)[C@H](CCCCN)NC(=O)[C@H](CC(C)C)NC(=O)[C@H](CCCCN)NC(=O)COC[C@H]2CCCN2C1=O` [Peptide 22, KLKLKT3WAVVN*T3] (cyclo(KLKLK[dProlinol(O-CH2CO)]WAVV[Nle][dProlinol(O-CH2CO)])) displayed an IC50 (24 h) of 17 µM.

For `CCCC[C@@H]1NC(=O)[C@H](C(C)C)NC(=O)[C@H](C(C)C)NC(=O)[C@H](C)NC(=O)[C@H](Cc2c[nH]c3ccccc23)NC(=O)COC[C@H]2CCCN2C(=O)[C@H](CCCCN)NC(=O)CN(C)C(=O)[C@H](CCCCN)NC(=O)CN(C)C(=O)[C@H](CCCCN)NC(=O)COC[C@H]2CCCN2C1=O` [Peptide 23, KXKXKT3WAVVN*T3] (cyclo(K[Sar]K[Sar]K[dProlinol(O-CH2CO)]WAVV[Nle][dProlinol(O-CH2CO)])), for the setting “24 h”, the IC50 is more than 150 µM. The “bioactivity relative to parent/comparator peptide” value (H929 cells) was “poor bioactivity”. As for `CCCC[C@@H]1NC(=O)CN(S(C)(=O)=O)CCNC(=O)[C@H](CCCCN)NC(=O)[C@H](CC(C)C)NC(=O)[C@H](CCCCN)NC(=O)[C@H](CC(C)C)NC(=O)[C@H](CCCCN)NC(=O)COC[C@H]2CCCN2C(=O)[C@H](Cc2c[nH]c3ccccc23)NC(=O)[C@H](C)NC(=O)[C@H](CC(C)C)NC(=O)[C@H](C(C)C)NC1=O` [Peptide 24, KLKLKT1N*VLAWT3] (Ms-[N(2-Aminoethyl)Gly][Nle]VLAW[dProlinol(O-CH2CO)]KLKLK; lactam 1-C), the IC50 under setting [1] is 10 µM. Regarding `CCCC[C@@H]1NC(=O)CN(S(C)(=O)=O)CCNC(=O)[C@H](CCCCN)NC(=O)[C@H](CC(C)C)NC(=O)[C@H](CCCCN)NC(=O)[C@H](CC(C)C)NC(=O)[C@H](CCCCN)NC(=O)COC[C@H]2CCCN2C(=O)[C@H](Cc2c[nH]c3ccccc23)NC(=O)[C@H](C)NC(=O)[C@H]([C@@H](C)CC)NC(=O)[C@H](C(C)C)NC1=O` [Peptide 25, KLKLKT1N*VIAWT3] (Ms-[N(2-Aminoethyl)Gly][Nle]VIAW[dProlinol(O-CH2CO)]KLKLK; lactam 1-C), the IC50 under setting [1] stood at 10 µM.

The values are drawn from patent US20150071918A1, “PEPTIDES FOR THE TREATMENT OF CANCER” (H. LEE MOFFITT CANCER CENTER AND RESEARCH INSTITUTE, INC., priority 2012, published 2015).
